Reference: patent US11453666B2, “Autotaxin inhibitory compounds” (Cancer Research Technology Limited, priority 2015, dated 2022)

Molecular target: human recombinant ATX (Homo sapiens, UniProt Q13822)
Assay: Autotaxin (ATX) activity Quanta Red assay
Format: biochemical
Conditions: Table 2: additional compounds tested for ATX activity (Quanta Red Assay); read-out: Activity
Procedure, shortened: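 Recombinant human ATX reaction stopped after 2 h with Quanta Red stop solution; fluorescence read at […]. Controls with DMSO, with and without ATX; IC50 in duplicate.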

IC50 [nM] | Compound
466 | COc1ccc(Cn2c(CCC(=O)NCCc3cccc(C)c3)nc3cccnc32)cc1 [Example 229, 3-[3-(4-Methoxy-benzyl)-3H-imidazo[4,5-b]pyridin-2-yl]-N-(2-m-tolyl-ethyl)-propionamide]
324 | O=C(CCc1nc2cccnc2n1Cc1ccccc1)NCc1ccc(F)cc1 [Example 223, 3-(3-Benzyl-3H-imidazo[4,5-b]pyridin-2-yl)-N-(4-fluoro-benzyl)-propionamide]

Same assay, conditions: human recombinant ATX 0.8 μg/mL, 2 hours at room temperature, IC50 determined in duplicate; read-out: Activity (ATX activity, Quanta Red assay; IC50)

IC50 [nM] | Compound
2630 | C[C@@H](NC(=O)CCc1nc2cccnc2n1Cc1ccccc1)c1ccccc1 [Example 4, 3-(3-Benzyl-3H-imidazo[4,5-b]pyridin-2-yl)-N-((R)-1-phenyl-ethyl)-propionamide]

Same assay, conditions: read-out: Activity (ATX activity, Quanta Red assay; IC50)

IC50 [nM] | Compound
12 | C[C@H](NC(=O)CCc1nc2cccnc2n1Cc1cccs1)c1ccc(Cl)cc1 [Example 44, N-[(S)-1-(4-Chloro-phenyl)-ethyl]-3-(3-thiophen-2-ylmethyl-3H-imidazo[4,5-b]pyridin-2-yl)-propionamide]
14 | C[C@H](NC(=O)CCc1cc2cc(F)cnc2n1Cc1ccc(Cl)cc1)c1ccc(F)cc1 [Example 141, 3-[1-(4-Chloro-benzyl)-5-fluoro-1H-pyrrolo[2,3-b]byridin-2-yl]-N-[(S)-1-(4-fluoro-phenyl)-ethyl]-propionamide]
89 | C[C@H](NC(=O)CCc1nc2cccnc2n1Cc1ccc(OC(F)(F)F)cc1)C1CC1 [Example 60, N-((S)-1-Cyclopropyl-ethyl)-3-[3-(4-trifluoromethoxy-benzyl)-3H-imidazo[4,5-b]pyridin-2-yl]-propionamide]
15 | C[C@@H]1CN(c2ccc([C@H](C)NC(=O)CCc3nc4cccnc4n3Cc3ccc(F)c(F)c3)cc2)CCN1 [Example 188, 3-[3-(3,4-Difluoro-benzyl)-3H-imidazo[4,5-b]pyridin-2-yl]-N-{(S)-1-[4-((R)-3-methyl-piperazin-1-yl)-phenyl]-ethyl}-propionamide]
2 | CC[C@H]1CN(c2ccc([C@H](C)NC(=O)CCc3nc4cccnc4n3Cc3ccc(OC(F)(F)F)cc3)cc2)CCN1 [Example 172, N-{(S)-1-[4-((S)-3-Ethyl-piperazin-1-yl)-phenyl]-ethyl}-3-[3-(4-trifluoromethoxy-benzyl)-3H-imidazo[4,5-b]pyridin-2-yl]-propionamide]

The remaining lines, values behind:

Compound | IC50 [nM]
O=C(CCc1nc2cccnc2n1Cc1ccccc1OC(F)(F)F)NCc1ccc(OC(F)(F)F)cc1 [Example 120, N-(4-Trifluoromethoxy-benzyl)-3-[3-(2-trifluoromethoxy-benzyl)-3H-imidazo[4,5-b]pyridin-2-yl]-propionamide] | 292
C[C@H](NC(=O)CCc1nc2cccnc2n1Cc1ccc(F)cc1)c1ccc(F)cc1 [Example 88, 3-[3-(4-Fluoro-benzyl)-3H-imidazo[4,5-b]pyridin-2-yl]-N-[(S)-1-(4-fluoro-phenyl)-ethyl]-propionamide] | 6
COc1ccc(Cn2c(CCC(=O)N[C@H](C)c3ccccc3)nc3cccnc32)cc1 [Example 112, 3-[3-(4-Methoxy-benzyl)-3H-imidazo[4,5-b]pyridin-2-yl]-N-((R)-1-phenyl-ethyl)-propionamide] | 1060
COc1ccc(Cn2c(CCC(=O)N(C)Cc3ccc(F)cc3)nc3cccnc32)cc1 [Example 119, N-(4-Fluoro-benzyl)-3-[3-(4-methoxy-benzyl)-3H-imidazo[4,5-b]pyridin-2-yl]-N-methyl-propionamide] | 631
CC(C)(NC(=O)CCc1nc2ccncc2n1Cc1ccc(F)cc1)c1ccccc1 [Example 136, 3-[3-(4-Fluoro-benzyl)-3H-imidazo[4,5-c]pyridin-2-yl]-N-(1-methyl-1-phenyl-ethyl)-propionamide] | 115
COc1ccc(CNC(=O)CCc2nc3cccnc3n2Cc2cccc(OC(F)(F)F)c2)cc1 [Example 98, N-(4-Methoxy-benzyl)-3-[3-(3-trifluoromethoxy-benzyl)-3H-imidazo[4,5-b]pyridin-2-yl]-propionamide] | 45
